In the NIST ThermoML archive (doi:10.1021/acs.jced.5b00367):

Assay: wn = mass fraction of the nth substance listed
Conditions: 101 kPa, Liquid, Alternating current cell with electrodes, w2 = 0.01

CCCCCCCCCCCCCCCC[N+](C)(C)C.[Br-] [N,N,N-trimethyl-1-hexadecanaminium bromide] + O
Conditions | electrical conductivity [S/m]
278.35 K | 0.0058
278.45 K | 0.00619
278.65 K | 0.00607
278.75 K | 0.00612
278.85 K | 0.0062
278.95 K | 0.00609
279.05 K | 0.00617
279.15 K | 0.00614
279.25 K | 0.0062
279.35 K | 0.00616
279.45 K | 0.00619
279.55 K | 0.00628
279.65 K | 0.00609
279.85 K | 0.0061
279.95 K | 0.00631
280.05 K | 0.00615
280.15 K | 0.00638
280.25 K | 0.00613
280.35 K | 0.00642
280.45 K | 0.00634
280.55 K | 0.00613
280.65 K | 0.00616
280.75 K | 0.00638
280.95 K | 0.00614
281.05 K | 0.00624
281.25 K | 0.00621
281.35 K | 0.00655
281.45 K | 0.00644
281.55 K | 0.00622
281.75 K | 0.00649
281.85 K | 0.00648
282.05 K | 0.00651
282.45 K | 0.00667
282.55 K | 0.00678
282.65 K | 0.00648
282.75 K | 0.00655
282.95 K | 0.00662
283.05 K | 0.00638
283.15 K | 0.00641
283.25 K | 0.0067
283.35 K | 0.00677
283.45 K | 0.00666
283.55 K | 0.0068
283.75 K | 0.00674
283.85 K | 0.0068
283.95 K | 0.00686
284.05 K | 0.00653
284.15 K | 0.00678
284.25 K | 0.00646
284.45 K | 0.00672
284.55 K | 0.007
284.65 K | 0.00699
284.75 K | 0.00651
284.85 K | 0.00686
285.05 K | 0.00717
285.15 K | 0.00708
285.25 K | 0.00696
285.35 K | 0.00725
285.45 K | 0.00739
285.55 K | 0.00715
285.65 K | 0.00719
285.85 K | 0.00716
285.95 K | 0.00733
286.05 K | 0.00702
286.15 K | 0.00705
286.25 K | 0.007
286.35 K | 0.00737
286.45 K | 0.00737
286.55 K | 0.00715
286.65 K | 0.00719
286.75 K | 0.00733
286.85 K | 0.0074
286.95 K | 0.00708
287.05 K | 0.00755
287.15 K | 0.00733
287.25 K | 0.00744
287.35 K | 0.00761
287.45 K | 0.00728
287.55 K | 0.00751
287.65 K | 0.00752
287.75 K | 0.0073
287.85 K | 0.0076
287.95 K | 0.00774
288.05 K | 0.0076
288.15 K | 0.00778
288.25 K | 0.00766
288.35 K | 0.00772
288.45 K | 0.00805
288.55 K | 0.00791
288.65 K | 0.00778
288.75 K | 0.00779
288.85 K | 0.0077
288.95 K | 0.00795
289.05 K | 0.00784
289.15 K | 0.00787
289.25 K | 0.00779
289.35 K | 0.00805
289.45 K | 0.00794
289.55 K | 0.00793
289.65 K | 0.00803
289.75 K | 0.00826
289.85 K | 0.00819
289.95 K | 0.00835
290.05 K | 0.0079
290.15 K | 0.00861
290.25 K | 0.00828
290.35 K | 0.00849
290.45 K | 0.00815
290.55 K | 0.00824
290.65 K | 0.00834
290.75 K | 0.00836
290.85 K | 0.00818
290.95 K | 0.00836
291.05 K | 0.00861
291.15 K | 0.00846
291.25 K | 0.0088
291.35 K | 0.00865
291.45 K | 0.00866
291.55 K | 0.00853
291.65 K | 0.00868
291.75 K | 0.00867
291.85 K | 0.00897
291.95 K | 0.00872
292.05 K | 0.00879
292.15 K | 0.00913
292.25 K | 0.00908
292.35 K | 0.00902
292.45 K | 0.00905
292.55 K | 0.00904
292.65 K | 0.00928
292.75 K | 0.00942
292.85 K | 0.00967
292.95 K | 0.00959
293.05 K | 0.00954
293.15 K | 0.00976
293.25 K | 0.01
293.35 K | 0.0101
293.45 K | 0.0102
293.55 K | 0.0103
293.65 K | 0.0105
293.75 K | 0.0102
294.15 K | 0.0106
294.25 K | 0.0109
294.35 K | 0.0107
294.45 K | 0.011
294.55 K | 0.0111
294.65 K | 0.0109
294.75 K | 0.011
294.85 K | 0.0114
294.95 K | 0.0113
295.05 K | 0.0114
295.15 K | 0.0117
295.25 K | 0.0117
295.45 K | 0.0122
295.65 K | 0.0126
295.75 K | 0.0124
295.85 K | 0.0128
296.05 K | 0.013
296.15 K | 0.0139
296.35 K | 0.0139
296.45 K | 0.0145
296.55 K | 0.0148
296.75 K | 0.0157
296.95 K | 0.0167
297.05 K | 0.0178
297.15 K | 0.02
297.35 K | 0.0201
297.45 K | 0.0217
297.55 K | 0.0232
297.65 K | 0.0257
297.95 K | 0.0314
298.05 K | 0.0353
298.25 K | 0.0406
298.35 K | 0.0457
298.45 K | 0.0514
298.55 K | 0.0565
298.75 K | 0.0605
298.85 K | 0.0628
299.05 K | 0.0642
299.15 K | 0.0647
299.25 K | 0.0648
